Publication PMC11965401 (Nature Communications, 2025)
Values belong to the molecule of their own block, whether it stands above or below them.

Tests used:
[1] = target: T1, CoREST1^NT2-HDAC2 (Homo sapiens, UniProt Q92769); assay: microscale thermophoresis, competition with labelled KBTBD4 R313PRR; details: blocks KBTBD4 R313PRR binding to HDAC2; HDAC2 catalytic site; pH 7.5, 25 °C
T1 construct: untagged full-length HDAC2 1-488 co-expressed with CoREST1 ELM2-SANT1 71-259 (C-terminal FLAG/10xHis) in Expi293F, purified; with REST corepressor 1

[2] = target: T2, KBTBD4^WT with CoREST1^NT2-HDAC2 (ternary complex) (Homo sapiens, UniProt Q92769+Q9NVX7); assay: microscale thermophoresis, labelled KBTBD4 WT; type: binding
T2 construct: FLAG-KBTBD4 17-534 (near full length, dimer, N-terminal 3xFLAG); untagged full-length HDAC2 1-488 co-expressed with CoREST1 ELM2-SANT1 71-259 carrying C-terminal FLAG/10xHis; Expi293F; purified; complexes 2:1:1, also 2:1 and 2:2 KBTBD4:HDAC2 by cryo-EM; with REST corepressor 1

[3] = target: FLAG-KBTBD4^R313PRR (17-536 a.a.), full-length dimer (human (from the printed UniProt entry)) (UniProt Q9NVX7); assay: MST; unlabelled partner titrated into 40 nM RED-NHS-labelled KBTBD4 variant, no compound; 50 mM HEPES pH 7.5, 150 mM NaCl, 10% glycerol, 5 mM MgCl2, 0.05% Tween-20, 0.1 mM TCEP; 25 °C; apparent KD; triplicates
[4] = target: FLAG-KBTBD4^R313PRR (17-536 a.a.), full-length dimer (human (from the printed UniProt entry)), Q9NVX7; assay: cryo-EM structure; 4 µM KBTBD4^R313PRR mixed with 4 µM CoREST1^NT2-HDAC2, 50 mM HEPES pH 7.5, 150 mM NaCl, 10% glycerol, 5 mM MgCl2, 0.5 mM TCEP, 15 min on ice, not crosslinked; details: remark: other sources report otherwise
[5] = target: FLAG-KBTBD4^WT (17-534 a.a.) (human (from the printed UniProt entry)), Q9NVX7; assay: cryo-EM structure; 4 µM KBTBD4^WT, 4 µM CoREST1^NT2-HDAC2 and 40 µM UM171, 50 mM HEPES pH 7.5, 150 mM NaCl, 5% glycerol, 5 mM MgCl2, 0.5 mM TCEP, crosslinked with BS3; details: remark: other sources report otherwise

Molecule: CC(=O)Nc1ccc(C(=O)Nc2cc(-c3cccs3)ccc2N)cc1 [BRD6929]
microscale thermophoresis, competition with labelled KBTBD4 R313PRR [1]: the addition of BRD6929 abrograted all KBTBD4^R313PRR-HDAC2 binding in the MST assay

Molecule: CoREST1^NT2-HDAC2 complex (recombinant, co-expressed) (from UniProt Q92769-1 1-488)
Kd [3]: 750 nM

B1: FLAG-KBTBD4^R313PRR (17-536 a.a.), full-length dimer, Q9NVX7-2 17-534 (natural protein)
chain: MESPEEPGASMDENYFVNYTFKDRSHSGRVAQGIMKLCLEEELFADVTISVEGREFQLHRLVLSAQSCFFRSMFTSNLKEAHNRVIVLQDVSESVFQLLVDYIYHGTVKLRAEELQEIYEVSDMYQLTSLFEECSRFLARTVQVGNCLQVMWLADRHSDPELYTAAKHCAKTHLAQLQNTEEFLHLPHRLLTDIISDGVPCSQNPTEAIEAWINFNKEEREAFAESLRTSLKEIGENVHIYLIGKESSRTHSLAVSLHCAEDDSISVSGQNSLCHQITAACKHGGDLYVVGGSIPRPRRMWKCNNATVDWEWCAPLPRDRLQHTLVSVPGKDAIYSLGGKTLQDTLSNAVIYYRVGDNVWTETTQLEVAVSGAAGANLNGIIYLLGGEENDLDFFTKPSRLIQCFDTETDKCHVKPYVLPFAGRMHAAVHKDLVFIVAEGDSLVCYNPLLDSFTRLCLPEAWSSAPSLWKIASCNGSIYVFRDRYKKGDANTYKLDPATSAVTVTRGIKVLLTNLQFVLA
modifications: here or on the partner: RED-NHS 2nd generation fluorescent label, in the MST experiments only; RED-NHS 2nd generation fluorescent label, in the MST experiments only
stoichiometry N [4]: 2

B2: FLAG-KBTBD4^WT (17-534 a.a.), Q9NVX7-2 17-534 (natural protein)
chain: MESPEEPGASMDENYFVNYTFKDRSHSGRVAQGIMKLCLEEELFADVTISVEGREFQLHRLVLSAQSCFFRSMFTSNLKEAHNRVIVLQDVSESVFQLLVDYIYHGTVKLRAEELQEIYEVSDMYQLTSLFEECSRFLARTVQVGNCLQVMWLADRHSDPELYTAAKHCAKTHLAQLQNTEEFLHLPHRLLTDIISDGVPCSQNPTEAIEAWINFNKEEREAFAESLRTSLKEIGENVHIYLIGKESSRTHSLAVSLHCAEDDSISVSGQNSLCHQITAACKHGGDLYVVGGSIPRRMWKCNNATVDWEWCAPLPRDRLQHTLVSVPGKDAIYSLGGKTLQDTLSNAVIYYRVGDNVWTETTQLEVAVSGAAGANLNGIIYLLGGEENDLDFFTKPSRLIQCFDTETDKCHVKPYVLPFAGRMHAAVHKDLVFIVAEGDSLVCYNPLLDSFTRLCLPEAWSSAPSLWKIASCNGSIYVFRDRYKKGDANTYKLDPATSAVTVTRGIKVLLTNLQFVLA
modifications: here or on the partner: RED-NHS 2nd generation fluorescent label, in the MST experiments only; RED-NHS 2nd generation fluorescent label, in the MST experiments only
stoichiometry N [5]: 2

Other lines, results leading:

Kd [2]: 26000 nM
Molecule: Cn1cc(-c2ccc3c(c2)[nH]c2nc(Cc4ccccc4)nc(NC4CCC(N)CC4)c23)cn1 (stereo not drawn) [compound 2, compound (2)]

Kd [2]: 2300 nM
Molecule: COC(=O)c1ccc2c(c1)[nH]c1nc(Cc3ccccc3)nc(NCCCN3CCCC3)c12 [compound 13, S234984]
